Results taken from patent publication US20040006783A1, “Compositions and methods for modulating Rop GTPase activity in plants” (THE REGENTS THE UNIVERSITY OF CALIFORINIA, priority 2002, published 2004).
Read-outs that look alike come from different tables or passages of the source.

Assays:
[1] = test system: GUS activity in ropgap4-1 seedlings; assay: GUS specific activity in ropgap4-1 seedlings; assay type: in vivo, Arabidopsis thaliana
ADH = ADH specific activity in cell extracts of treated seedlings
WT seedlings = conditions: for Viable Seedlings 48 h after Treatment: 30 μM DPI in 3% DMSO, mean ± SE
Source text: (§1) For oxygen deprivation, plates were transferred to an airtight chamber designed to allow entry and exit of 99.998% argon under 0.4 μmols/s^1m^2 per μÅ of light.

ropgap4-1 seedlings = conditions: for Viable Seedlings 48 h after Treatment: ropgap4-1, 30 μM DPI in 3% DMSO, mean ± SE
Source text: as §1

CA-rop2 seedlings = conditions: for Viable Seedlings 48 h after Treatment: CA-rop2, 30 μM DPI in 3% DMSO, mean ± SE
Source text: as §1

DN-rop2 seedlings = conditions: for Viable Seedlings 48 h after Treatment: DN-rop2, 30 μM DPI in 3% DMSO, mean ± SE
Source text: as §1

H2O2 = conditions: seedlings treated with caffeine and DPI for 24 h
Procedure: Caffeine (5 mM) was incorporated into the medium of plates to which seedlings were transferred. […] Control seedlings were treated with 3% (v/v) DMSO or transferred to plates not containing caffeine.
H2O2 levels were measured using a modification of the Terashima (1998) method (Terashima et al., Physiol. Plant. 103:295-303 (1998)). Tissue (0.5 g) was homogenized under liquid nitrogen, hydrated in 3 ml of 5% (w/v) metaphosphoric acid and centrifuged at 1,500×g at 4° C. for 20 min. The pH of the supernatant was adjusted to pH 7 with 1M Tricine, 6M NaOH. H2O2 levels were measured in a 500-μl reaction containing 200 mM MOPS-KOH (pH 7.8), 50 mM NADH in 10 mM potassium phosphate (pH 7.8). Absorbance at 340 nm was measured, 0.5 U of Streptococcusfaecalis NADH peroxidase (Sigma) was added, the sample was incubated for 1 h and absorbance at 340 nm was re-measured. H2O2 levels were determined from the decrease in absorbance in 60 min using a standard curve generated from similarly processed H2O2 standards.

Question: How did the “effect on GUS activity” value ([1]; caffeine) turn out when `Cn1c(=O)c2c(ncn2C)n(C)c1=O` [Caffeine] was run?
Answer: The value was “rose”.

Question: What about the “caffeine promoted increase in ADH specific activity” value (ADH; CA-rop2 seedlings) of the same molecule?
Answer: Its value is “limited”.

Question: What about the “induction of ADH specific activity” value (ADH; all four genotypes, non-stress conditions, caffeine 5 mM, 24 h) of the same molecule?
Answer: The value was “significantly higher levels than the maximal level observed in response to low oxygen”.

Question: And the “caffeine promoted increase in ADH specific activity” value (ADH; ropgap4-1 seedlings)?
Answer: The value was “dramatic”.

Question: What does the source list for `c1ccc2c(c1)[I+]c1ccccc1-2` [DPI, diphenylene iodonium chloride]?
Answer: effect on rise of GUS activity in response to low oxygen and caffeine ([1]; DPI): blocked; Viable Seedlings 48 h after Treatment (WT seedlings; 0 h oxygen deprivation): 100 Percentage; Viable Seedlings 48 h after Treatment (WT seedlings; 6 h oxygen deprivation): 80 ± 5 Percentage; Viable Seedlings 48 h after Treatment (WT seedlings; 12 h oxygen deprivation): 0 Percentage; Viable Seedlings 48 h after Treatment (WT seedlings; 24 h oxygen deprivation): 0 Percentage; duration of stress that WT seedlings survived (WT seedlings; oxygen deprivation with DPI (over 36 h without DPI)): less than 12 h; Viable Seedlings 48 h after Treatment (ropgap4-1 seedlings; 0 h oxygen deprivation): 100 Percentage; Viable Seedlings 48 h after Treatment (ropgap4-1 seedlings; 6 h oxygen deprivation): 100 Percentage; Viable Seedlings 48 h after Treatment (ropgap4-1 seedlings; 12 h oxygen deprivation): 50 ± 5 Percentage; Viable Seedlings 48 h after Treatment (ropgap4-1 seedlings; 24 h oxygen deprivation): 0 Percentage; effect on survival of O2 deprivation (ropgap4-1 seedlings; ropgap4-1 seedlings, DPI treatment): increased survival of O2 deprivation; Viable Seedlings 48 h after Treatment (CA-rop2 seedlings; 0 h oxygen deprivation): 100 Percentage; Viable Seedlings 48 h after Treatment (CA-rop2 seedlings; 6 h oxygen deprivation): 100 Percentage; Viable Seedlings 48 h after Treatment (CA-rop2 seedlings; 12 h oxygen deprivation): 100 Percentage; Viable Seedlings 48 h after Treatment (CA-rop2 seedlings; 24 h oxygen deprivation): 0 Percentage; effect on survival of oxygen deprivation (CA-rop2 seedlings; CA-rop2 seedlings, in the presence of DPI): improved; Viable Seedlings 48 h after Treatment (DN-rop2 seedlings; 0 h oxygen deprivation): 90 ± 3 Percentage; Viable Seedlings 48 h after Treatment (DN-rop2 seedlings; 6 h oxygen deprivation): 70 ± 4 Percentage; Viable Seedlings 48 h after Treatment (DN-rop2 seedlings; 12 h oxygen deprivation): 0 Percentage; Viable Seedlings 48 h after Treatment (DN-rop2 seedlings; 24 h oxygen deprivation): 0 Percentage; effect on survival of oxygen deprivation (DN-rop2 seedlings; DN-rop2 seedlings, in the presence of DPI): impaired; effect on caffeine-stimulated increase in H2O2 (H2O2): effectively blocked; effect on ADH activity (ADH; all four genotypes, control and low oxygen conditions, 30 μM DPI): reduced ADH activity; effect on ADH induction (ADH; ropgap4-1 seedlings, oxygen deprivation, DPI treatment): reduced ADH induction; effect on caffeine-stimulated increase in ADH specific activity (ADH; seedlings treated with caffeine and DPI for 24 h): effectively blocked
